Data as given in patent US20090042937A1, “[…] USE IN TREATING OR […]-RELATED DISEASES” (priority 2005, published 2009).
“And” between values parts separate entries of the source, which are not always exact repeats. Equal values may be shown once.

Tests used:
[1] = system: Eukaryotic translation initiation factor for E binding protein 1 (EIF4EBP1); experiment: Microarray gene expression in adipose tissue of Tempol-fed mice; type: in vivo
Procedure: (§1) In a further gene expression study, Tempol was administered to experimental mice at a dose of 5 g/kg of diet from 12 months through 15 months. Mice receiving the same diet without the addition of Tempol were used as a negative control. At the age of 15 months, the adipose tissue of the experimental animals was obtained. The expression of a broad spectrum of genes in the adipose tissue was assessed using chip-based microarray technology. Specifically, in this case an Affymetrix MOE430A 2.0 array, containing 12,960 genes, was employed. Such chips are well known in the art and are widely used to assess gene expression.

[2] = system: Eukaryotic translation initiation factor 4 E2 (EIF4E2); experiment: as above; type: in vivo
Procedure: as §1

Caspase 3 [3] = experiment: as above; type: in vivo
Procedure: as §1

Cyclooxygenase 1 (COX-1) = experiment: as above; type: in vivo
Procedure: as §1

[4] = system: eukaryotic translation initiation factor 4E member 2; experiment: Circulating serum protein levels in patient after Tempol treatment; type: in vivo, human; details: 1500 mg per day for 180 days
Source text: (§2) This may be administered in a single dose, or may be administered as a number of smaller doses over a 24-hour period: for example, three 500-mg doses at eight-hour intervals. Following treatment, the circulating serum protein levels of serum amyloid P-component precursor, serum amyloid A-1 protein precursor, JAK-1, cathepsin B, eukaryotic translation initiation factor 4E member 2, cyclooxygenase-1, and caspase 3 are reduced. Furthermore, the serum protein levels of eukaryotic translation initiation factor 4E binding protein are increased.
(§3) This may be administered in a single dose, or may be administered as a number of smaller doses over a 24-hour period: for example, three 500-mg doses at eight-hour intervals. Following treatment, the circulating serum protein levels of serum amyloid P-component precursor, serum amyloid A-1 protein precursor, JAK-1, and cathepsin B, eukaryotic translation initiation factor 4E member 2, cyclooxygenase-1, and caspase 3 are reduced. Furthermore, the serum protein levels of eukaryotic translation initiation factor 4E binding protein are increased.

cathepsin B = experiment: as above; type: in vivo, human; details: 1500 mg per day for 180 days
Source text: as §2, §3

[5] = system: eukaryotic translation initiation factor 4E binding protein; experiment: as above; type: in vivo, human; details: 1500 mg per day for 180 days
Source text: as §2, §3

[6] = system: serum amyloid A-1 protein precursor; experiment: as above; type: in vivo, human; details: 1500 mg per day for 180 days
Source text: as §2, §3

[7] = system: serum amyloid P-component precursor; experiment: as above; type: in vivo, human; details: 1500 mg per day for 180 days
Source text: as §2, §3

JAK-1 = experiment: as above; type: in vivo, human; details: 1500 mg per day for 180 days
Source text: as §2, §3

caspase 3 [8] = experiment: as above; type: in vivo, human; details: 1500 mg per day for 180 days
Source text: as §2, §3

cyclooxygenase-1 = experiment: as above; type: in vivo, human; details: 1500 mg per day for 180 days
Source text: as §2, §3

[9] = system: T-lymphocyte 1/rpt-1 regulatory protein (J03776); experiment: Microarray gene expression in cardiac tissue of Tempol-fed mice; type: in vivo; details: 5 mg/g of food from 14 to 31 months
Procedure: (§4) To assess the effects of Tempol on gene expression, Tempol was administered to experimental mice at a dose of 5 mg/g of food from 14 months to 31 months after birth. Mice receiving the same food without the addition of Tempol were used as a negative control. At the age of 31 months, the experimental animals were sacrificed and the hearts were surgically removed. The expression of a broad spectrum of genes in the cardiac tissue was assessed using chip-based microarray technology. Such chips are well known in the art and are widely used to assess gene expression.

Cyclophilin A (AA116993) = experiment: as above; type: in vivo; details: 5 mg/g of food from 14 to 31 months
Procedure: as §4

[10] = system: Lymphocyte receptor/polyubiquitin (W13546); experiment: as above; type: in vivo; details: 5 mg/g of food from 14 to 31 months
Procedure: as §4

[11] = system: T-cell specific GTPase (U15636); experiment: as above; type: in vivo; details: 5 mg/g of food from 14 to 31 months
Procedure: as §4

[12] = system: Selenium-binding protein 2 (M32032); experiment: as above; type: in vivo; details: 5 mg/g of food from 14 to 31 months
Procedure: as §4

[13] = system: Immunophilin (FKBP25) (AA120298); experiment: as above; type: in vivo; details: 5 mg/g of food from 14 to 31 months
Procedure: as §4

[14] = system: Interferon-inducible protein (AA002526); experiment: as above; type: in vivo; details: 5 mg/g of food from 14 to 31 months
Procedure: as §4

[15] = system: XPE UV-damaged DNA binding factor (W62091); experiment: as above; type: in vivo; details: 5 mg/g of food from 14 to 31 months
Procedure: as §4

Hsp-90 homolog (W62326) = experiment: as above; type: in vivo; details: 5 mg/g of food from 14 to 31 months
Procedure: as §4

[16] = system: Interferon α-induced 11.5 kd protein (P27) (AA120109); experiment: as above; type: in vivo; details: 5 mg/g of food from 14 to 31 months
Procedure: as §4

[17] = system: Interferon γ-inducible protein/IRG 47GTP-binding (M63690); experiment: as above; type: in vivo; details: 5 mg/g of food from 14 to 31 months
Procedure: as §4

Cathepsin B (M65270) = experiment: as above; type: in vivo
Procedure: as §4

CD52 antigen (M55561) = experiment: as above; type: in vivo; details: 5 mg/g of food from 14 to 31 months
Procedure: as §4

[18] = system: Serum amyloid A-1 protein precursor (M13521); experiment: as above; type: in vivo
Procedure: as §4

[19] = system: XPE-DNA damage binding protein (AA104319); experiment: as above; type: in vivo; details: 5 mg/g of food from 14 to 31 months
Procedure: as §4

JAK-1 (AA066354) = experiment: as above; type: in vivo
Procedure: as §4

[20] = system: Interferon induced protein (AA013783); experiment: as above; type: in vivo; details: 5 mg/g of food from 14 to 31 months
Procedure: as §4

CD53 antigen (X97227) = experiment: as above; type: in vivo; details: 5 mg/g of food from 14 to 31 months
Procedure: as §4

[21] = system: Serum amyloid P-component precursor (SAP) (Y00426); experiment: as above; type: in vivo
Procedure: as §4

[22] = adipose tissue of experimental mice, Table 4
[23] = Example 1: 70-kilogram patient with symptoms of dementia
[24] = Example 2: 70-kilogram patient with familial risk factors, no symptoms of dementia
[25] = cardiac tissue of experimental mice, Table 1

CC1(C)CC(O)CC(C)(C)N1[O] [Tempol, 4-hydroxy-2,2,6,6-tetramethylpiperidine-1-oxyl]
Mean (Tempol-treated mice) ([1]; EIF4EBP1, 5 g/kg of diet from 12 through 15 months, Affymetrix MOE430A 2.0 array): 4737 | Fold change ([1]; EIF4EBP1, Tempol-treated vs control mice, 5 g/kg of diet from 12 through 15 months): 1.29 fold | expression of EIF4E binding protein 1 upregulated ([1]; Table 3): 1.29 fold | Mean (Tempol-treated mice) ([2]; EIF4E2, 5 g/kg of diet from 12 through 15 months, Affymetrix MOE430A 2.0 array): 873 | Fold change ([2]; EIF4E2, Tempol-treated vs control mice, 5 g/kg of diet from 12 through 15 months): −1.23 fold | expression of the EIF4E2 protein downregulated ([2]; Table 4): 1.23 fold | Mean (Tempol-treated mice) (Caspase 3 [3]; Caspase 3, adipose tissue, 5 g/kg of diet from 12 through 15 months, Affymetrix MOE430A 2.0 array): 414 | Fold change (Caspase 3 [3]; Caspase 3, adipose tissue, Tempol-treated vs control mice, 5 g/kg of diet from 12 through 15 months): −1.47 fold | expression of caspase 3 reduced (Caspase 3 [3]; [22]): 1.47 fold | Mean (Tempol-treated mice) (Cyclooxygenase 1 (COX-1); COX-1, adipose tissue, 5 g/kg of diet from 12 through 15 months, Affymetrix MOE430A 2.0 array): 331 | Fold change (Cyclooxygenase 1 (COX-1); COX-1, adipose tissue, Tempol-treated vs control mice, 5 g/kg of diet from 12 through 15 months): −1.18 fold | expression of COX-1 reduced (Cyclooxygenase 1 (COX-1); [22]): 1.18 fold | circulating serum protein level of eukaryotic translation initiation factor 4E member 2 [4, 23]: reduced | circulating serum protein level of eukaryotic translation initiation factor 4E member 2 [4, 24]: reduced | circulating serum protein level of cathepsin B (cathepsin B; [23]): reduced | circulating serum protein level of cathepsin B (cathepsin B; [24]): reduced | serum protein level of eukaryotic translation initiation factor 4E binding protein [5, 23]: increased | serum protein level of eukaryotic translation initiation factor 4E binding protein [5, 24]: increased | circulating serum protein level of serum amyloid A-1 protein precursor [6, 23]: reduced | circulating serum protein level of serum amyloid A-1 protein precursor [6, 24]: reduced | circulating serum protein level of serum amyloid P-component precursor [7, 23]: reduced | circulating serum protein level of serum amyloid P-component precursor [7, 24]: reduced | circulating serum protein level of JAK-1 (JAK-1; [23]): reduced | circulating serum protein level of JAK-1 (JAK-1; [24]): reduced | circulating serum protein level of caspase 3 (caspase 3 [8]; [23]): reduced | circulating serum protein level of caspase 3 (caspase 3 [8]; [24]): reduced | circulating serum protein level of cyclooxygenase-1 (cyclooxygenase-1; [23]): reduced | circulating serum protein level of cyclooxygenase-1 (cyclooxygenase-1; [24]): reduced | Fold change ([9]; TEMPOL-treated vs control mice): −2.7 fold | Expression, TEMPOL-treated mice (tp51, tp52, tp53) ([9]; individual mice): 17 and 42 and 29 | Fold change (Cyclophilin A (AA116993); TEMPOL-treated vs control mice): −2.1 fold | Expression, TEMPOL-treated mice (tp51, tp52, tp53) (Cyclophilin A (AA116993); individual mice): 12 and −14 and −10 | Fold change ([10]; TEMPOL-treated vs control mice): −55.2 fold | Expression, TEMPOL-treated mice (tp51, tp52, tp53) ([10]; individual mice): −16 and −66 and 1331 | Fold change ([11]; TEMPOL-treated vs control mice): −2.0 fold | Expression, TEMPOL-treated mice (tp51, tp52, tp53) ([11]; individual mice): 146 and 79 and 164 | Fold change ([12]; TEMPOL-treated vs control mice): −2.1 fold | Expression, TEMPOL-treated mice (tp51, tp52, tp53) ([12]; individual mice): 554 and 600 and 670 | Fold change ([13]; TEMPOL-treated vs control mice): −2.1 fold | Expression, TEMPOL-treated mice (tp51, tp52, tp53) ([13]; individual mice): 200 and 154 and 164 | Fold change ([14]; TEMPOL-treated vs control mice): −2.7 fold | Expression, TEMPOL-treated mice (tp51, tp52, tp53) ([14]; individual mice): 26 and 34 and 36 | Fold change ([15]; TEMPOL-treated vs control mice): −2.9 fold | Expression, TEMPOL-treated mice (tp51, tp52, tp53) ([15]; individual mice): 61 and 75 and 213 | Fold change (Hsp-90 homolog (W62326); TEMPOL-treated vs control mice): −2.4 fold | Expression, TEMPOL-treated mice (tp51, tp52, tp53) (Hsp-90 homolog (W62326); individual mice): 6 and 16 and 39 | Fold change ([16]; TEMPOL-treated vs control mice): −2.3 fold | Expression, TEMPOL-treated mice (tp51, tp52, tp53) ([16]; individual mice): 149 and 88 and 72 | Fold change ([17]; TEMPOL-treated vs control mice): −2.0 fold | Expression, TEMPOL-treated mice (tp51, tp52, tp53) ([17]; individual mice): 29 and 20 and 1 | Fold change (Cathepsin B (M65270); M65270, cardiac tissue, TEMPOL-treated vs control mice, 5 mg/g of food from 14 to 31 months): −2.8 fold | Expression, TEMPOL-treated mice (tp51, tp52, tp53) (Cathepsin B (M65270); M65270, cardiac tissue, individual mice, 5 mg/g of food from 14 to 31 months): −12 and 6 and 13 | expression of cathepsin B reduced (Cathepsin B (M65270); cardiac tissue of experimental mice, text restating Table 2): 2.8 fold | Fold change (CD52 antigen (M55561); TEMPOL-treated vs control mice): −3.5 fold | Expression, TEMPOL-treated mice (tp51, tp52, tp53) (CD52 antigen (M55561); individual mice): 106 and 177 and 171 | Fold change ([18]; M13521, cardiac tissue, TEMPOL-treated vs control mice, 5 mg/g of food from 14 to 31 months): −2.5 fold | Expression, TEMPOL-treated mice (tp51, tp52, tp53) ([18]; M13521, cardiac tissue, individual mice, 5 mg/g of food from 14 to 31 months): 6 and 1 and 8 | expression of serum amyloid A-1 protein precursor reduced [18, 25]: 2.5 fold | Fold change ([19]; TEMPOL-treated vs control mice): −5.2 fold | Expression, TEMPOL-treated mice (tp51, tp52, tp53) ([19]; individual mice): 25 and 37 and 115 | Fold change (JAK-1 (AA066354); AA066354, cardiac tissue, TEMPOL-treated vs control mice, 5 mg/g of food from 14 to 31 months): −5.1 fold | Expression, TEMPOL-treated mice (tp51, tp52, tp53) (JAK-1 (AA066354); AA066354, cardiac tissue, individual mice, 5 mg/g of food from 14 to 31 months): 124 and 22 and 30 | expression of JAI(-1 reduced) (JAK-1 (AA066354); [25]): 5.1 fold | Fold change ([20]; TEMPOL-treated vs control mice): −4.9 fold | Expression, TEMPOL-treated mice (tp51, tp52, tp53) ([20]; individual mice): −81 and 27 and 41 | Fold change (CD53 antigen (X97227); TEMPOL-treated vs control mice): −2.1 fold | Expression, TEMPOL-treated mice (tp51, tp52, tp53) (CD53 antigen (X97227); individual mice): 21 and −17 and −13 | Fold change ([21]; Y00426, cardiac tissue, TEMPOL-treated vs control mice, 5 mg/g of food from 14 to 31 months): −2.8 fold | Expression, TEMPOL-treated mice (tp51, tp52, tp53) ([21]; Y00426, cardiac tissue, individual mice, 5 mg/g of food from 14 to 31 months): 43 and 61 and 119 | expression of serum amyloid P component precursor reduced [21, 25]: 2.8 fold
